Source: the supplement of paper PMC10307832

Columns and labels:
Experiment in all cases: relative viability (nuclei count vs DMSO), 5 days (fraction); higher = more cells survive
Bleomycin + Lapatinib = compound: CC1=C(N=C(N=C1N)[C@H](CC(=O)N)NC[C@@H](C(=O)N)N)C(=O)N[C@@H]([C@H](C2=CN=CN2)OC3C(C(C(C(O3)CO)O)O)OC4C(C(C(C(O4)CO)O)OC(=O)N)O)C(=O)N[C@H](C)[C@H]([C@H](C)C(=O)N[C@@H]([C@@H](C)O)C(=O)NCCC5=NC(=CS5)C6=NC(=CS6)C(=O)NCCC[S+](C)C)O [Bleomycin] + CS(=O)(=O)CCNCc1ccc(-c2ccc3ncnc(Nc4ccc(OCc5cccc(F)c5)c(Cl)c4)c3c2)o1 [Lapatinib] (partner 2 µM); settings: main component drawn
Method in brief: (§1)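 Cells from lung cancer lines were seeded into 1536-well plates and, one day later, dosed by pin tool. Treatments were either a single drug or a fixed dose of an anchor drug with five library-drug doses (not always all listed) in √10 steps. After 5 days, nuclei were stained in a one-step fixation (final 0.05% Triton X-100, 1% formaldehyde, 1 ug/ml Hoechst) and counted on 4× images, and relative viability is the treated-to-vehicle nuclei ratio, as the median of duplicate plates.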

Etoposide + Tozasertib = compound: COc1cc([C@@H]2c3cc4c(cc3[C@@H](O[C@@H]3O[C@@H]5CO[C@@H](C)O[C@H]5[C@H](O)[C@H]3O)[C@H]3COC(=O)[C@H]23)OCO4)cc(OC)c1O [Etoposide] + Cc1cc(Nc2cc(N3CCN(C)CC3)nc(Sc3ccc(NC(=O)C4CC4)cc3)n2)n[nH]1 [Tozasertib] (partner 0.1 µM)
Method in brief: as §1

Etoposide + Alpelisib = compound: COc1cc([C@@H]2c3cc4c(cc3[C@@H](O[C@@H]3O[C@@H]5CO[C@@H](C)O[C@H]5[C@H](O)[C@H]3O)[C@H]3COC(=O)[C@H]23)OCO4)cc(OC)c1O [Etoposide] + Cc1nc(NC(=O)N2CCC[C@H]2C(N)=O)sc1-c1ccnc(C(C)(C)C(F)(F)F)c1 [Alpelisib] (partner 2 µM)
Method in brief: as §1

Etoposide + Olaparib = compound: COc1cc([C@@H]2c3cc4c(cc3[C@@H](O[C@@H]3O[C@@H]5CO[C@@H](C)O[C@H]5[C@H](O)[C@H]3O)[C@H]3COC(=O)[C@H]23)OCO4)cc(OC)c1O [Etoposide] + O=C(c1cc(Cc2n[nH]c(=O)c3ccccc23)ccc1F)N1CCN(C(=O)C2CC2)CC1 [Olaparib] (partner 8 µM)
Method in brief: as §1

Cell Line | relative viability (Bleomycin + Lapatinib; first compound 0.01 µM) | relative viability (Bleomycin + Lapatinib; first compound 0.03162 µM) | relative viability (Bleomycin + Lapatinib; first compound 0.1 µM) | relative viability (Bleomycin + Lapatinib; first compound 0.3162 µM) | relative viability (Bleomycin + Lapatinib; first compound 1 µM) | relative viability (Etoposide + Tozasertib; first compound 0.01 µM) | relative viability (Etoposide + Tozasertib; first compound 0.03162 µM) | relative viability (Etoposide + Tozasertib; first compound 0.1 µM) | relative viability (Etoposide + Tozasertib; first compound 0.3162 µM) | relative viability (Etoposide + Tozasertib; first compound 1 µM) | relative viability (Etoposide + Alpelisib; first compound 0.01 µM) | relative viability (Etoposide + Alpelisib; first compound 0.03162 µM) | relative viability (Etoposide + Alpelisib; first compound 0.1 µM) | relative viability (Etoposide + Alpelisib; first compound 0.3162 µM) | relative viability (Etoposide + Alpelisib; first compound 1 µM) | relative viability (Etoposide + Olaparib; first compound 0.01 µM) | relative viability (Etoposide + Olaparib; first compound 0.03162 µM) | relative viability (Etoposide + Olaparib; first compound 0.1 µM) | relative viability (Etoposide + Olaparib; first compound 0.3162 µM) | relative viability (Etoposide + Olaparib; first compound 1 µM)
NCI-H2085 | 0.689 | 0.689 | 0.6 | 0.437 | 0.449 | 0.783 | 0.772 | 0.762 | 0.727 | 0.478 | 0.882 | 0.939 | 0.824 | 0.552 | 0.35 | 0.755 | 0.731 | 0.746 | 0.375 | 0.3
NCI-H2087 | 0.642 | 0.97 | 0.798 | 0.301 | 0.235 | 0.214 | 0.248 | 0.233 | 0.205 | 0.166 | – | 0.985 | 1.01 | 0.512 | 0.255 | 0.579 | 0.564 | 0.489 | 0.319 | 0.161
NCI-H2126 | 0.768 | 0.76 | 0.735 | 0.638 | 0.548 | 0.739 | 0.854 | 0.632 | 0.63 | 0.254 | 0.75 | 0.75 | 0.52 | 0.723 | 0.306 | 0.882 | 0.938 | 0.658 | 0.585 | 0.336
NCI-H2170 | 0.303 | 0.262 | 0.259 | 0.231 | 0.21 | 0.634 | 0.778 | 0.522 | 0.593 | 0.526 | 0.65 | 0.849 | – | 0.621 | 0.513 | 0.581 | 0.621 | – | 0.514 | 0.29
NCI-H2228 | 0.999 | 1.12 | 0.852 | 0.355 | 0.505 | 0.287 | 0.191 | 0.247 | 0.169 | 0.117 | 0.864 | 1.01 | 0.713 | 0.442 | 0.224 | 0.586 | 0.524 | 0.776 | 0.296 | 0.146
NCI-H2347 | 0.836 | 0.974 | 0.966 | 0.612 | 0.493 | 0.518 | 0.554 | 0.419 | 0.433 | 0.291 | 1.11 | 0.99 | 0.615 | 0.455 | 0.406 | 0.55 | 0.543 | 0.58 | 0.353 | 0.411
NCI-H2405 | 0.836 | 1.01 | 0.889 | 0.357 | 0.262 | 0.745 | 0.77 | 0.86 | 0.576 | 0.294 | 0.714 | 0.801 | 0.482 | 0.582 | 0.34 | 0.851 | 0.819 | 0.701 | 0.562 | 0.293
NCI-H3122 | 0.931 | 0.996 | 0.842 | 0.654 | 0.528 | 0.441 | 0.324 | 0.262 | 0.281 | 0.159 | 0.748 | 0.752 | 0.728 | 0.595 | 0.402 | 0.456 | 0.587 | 0.634 | 0.297 | 0.21
PC-3 [JPC-3] | 0.455 | 0.422 | 0.473 | 0.364 | 0.314 | 0.841 | 0.882 | 0.928 | 0.853 | 0.707 | 0.946 | 1.05 | 0.833 | 0.984 | 0.777 | 0.992 | 0.928 | 1.14 | 1.07 | 0.794
PC-14 | 0.302 | 0.244 | 0.222 | 0.096 | 0.0848 | 0.595 | 0.536 | 0.754 | 0.496 | 0.213 | 0.927 | 1.08 | 1.1 | 0.835 | 0.808 | 0.239 | 0.204 | 0.31 | 0.135 | 0.123
RERF-LC-KJ | 0.72 | 0.702 | 0.59 | 0.354 | 0.254 | 0.532 | 0.448 | 0.493 | 0.386 | 0.316 | 0.73 | 0.924 | 0.513 | 0.852 | 0.622 | 0.827 | 0.877 | 0.861 | 0.633 | 0.417
SK-LU-1 | 0.745 | 0.858 | 0.709 | 0.35 | 0.347 | 0.356 | 0.278 | 0.318 | 0.161 | 0.167 | 0.781 | 0.875 | 0.648 | 0.299 | 0.233 | 0.407 | 0.511 | 0.348 | 0.238 | 0.193
SK-MES-1 | 0.506 | 0.438 | 0.407 | 0.303 | 0.255 | 0.877 | 0.807 | 0.833 | 0.389 | 0.222 | 0.746 | 0.957 | 0.496 | 0.518 | 0.249 | 0.697 | 0.785 | 0.56 | 0.257 | 0.19
SW 1573 | 1.05 | 0.871 | 0.84 | 0.446 | 0.4 | 0.163 | 0.133 | 0.164 | 0.156 | 0.0887 | 0.6 | 0.857 | 0.55 | 0.404 | 0.223 | 0.45 | 0.397 | 0.395 | 0.16 | 0.0987
